# Test results: the supplement of paper PMC10307832
# Compound: CC(C)CCN1c2nc(Nc3cc(F)c(O)c(F)c3)ncc2N(C)C(=O)C1C [BI-D1870] + CC1(C)CCC(c2ccc(Cl)cc2)=C(CN2CCN(c3ccc(C(=O)NS(=O)(=O)c4ccc(N[C@H](CCN5CCOCC5)CSc5ccccc5)c(S(=O)(=O)C(F)(F)F)c4)cc3)CC2)C1 [Navitoclax] (partner 0.5 µM)
# Assay: relative viability (nuclei count vs DMSO), 5 days (fraction); higher = more cells survive
# Settings: first compound 4 µM
# Summary of the method: (§1)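 Relative viability equals treated-well nuclei counts divided by vehicle-well nuclei counts. Counts came from 4× images of lung cancer cell lines grown in 1536-well plates for 5 days after pin-tool dosing on the day after seeding. Dosing used one drug alone or a fixed anchor-drug dose plus five library-drug doses (not always all listed) in √10 steps, and values are medians of duplicate plates.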
row,Cell Line,relative viability
1,NCI-H23,0.888
2,NCI-H647,0.848

# Compound: O=c1ncccn1[C@@H]1O[C@H](CO)[C@@H](O)[C@H]1O [Zebularine] + Nc1nc2[nH]cc(CCc3ccc(C(=O)N[C@@H](CCC(=O)O)C(=O)O)cc3)c2c(=O)[nH]1 [Pemetrexed] (partner 0.2 µM)
# Assay: as above
# Settings: first compound 1 µM
# Summary of the method: as §1
row,Cell Line,relative viability
1,COR-L23,0.201
2,COR-L 105,1.26
3,LOU-NH91,0.368
4,ChaGo-K-1,0.269
5,NCI-H2170,0.273
6,NCI-H2405,1.14
7,HOP-62,0.326
8,LU99A,0.182
9,BEN,0.943
10,HARA,0.295
11,HCC-78,0.88
12,NCI-H322M,0.595
13,LCLC-97TM1,0.167
14,NCI-H2009,1.12
15,A-427,1.08
16,NCI-H441,0.274
17,NCI-H1734,0.39
18,NCI-H460,0.0616
19,NCI-H2347,0.459
20,SK-LU-1,1.03
21,NCI-H1395,1.05
22,201T,0.359
23,NCI-H1915,0.54
24,HCC-827,0.328
25,LXF-289,0.919
26,NCI-H23,0.777
27,NCI-H647,0.18

# Same assay, conditions: first compound 3.162 µM
row,Cell Line,relative viability
1,COR-L23,0.199
2,COR-L 105,1.06
3,LOU-NH91,0.415
4,ChaGo-K-1,0.257
5,NCI-H2170,0.289
6,NCI-H2405,0.913
7,HOP-62,0.316
8,LU99A,0.236
9,BEN,0.636
10,HARA,0.253
11,HCC-78,0.941
12,NCI-H322M,0.565
13,LCLC-97TM1,0.172
14,NCI-H2009,0.962
15,A-427,0.991
16,NCI-H441,0.248
17,NCI-H1734,0.459
18,NCI-H460,0.0545
19,NCI-H2347,0.466
20,SK-LU-1,0.922
21,NCI-H1395,0.787
22,201T,0.343
23,NCI-H1915,0.46
24,HCC-827,0.254
25,LXF-289,0.879
26,NCI-H23,0.706
27,NCI-H647,0.183

# Same assay, conditions: first compound 10 µM
row,Cell Line,relative viability
1,COR-L23,0.193
2,COR-L 105,0.987
3,LOU-NH91,0.419
4,ChaGo-K-1,0.254
5,NCI-H2170,0.273
6,NCI-H2405,0.795
7,HOP-62,0.239
8,LU99A,0.162
9,BEN,0.584
10,HARA,0.214
11,NCI-H322M,0.501
12,LCLC-97TM1,0.13
13,NCI-H2009,0.767
14,A-427,0.95
15,NCI-H441,0.302
16,NCI-H1734,0.395
17,NCI-H460,0.08
18,NCI-H2347,0.402
19,SK-LU-1,0.52
20,NCI-H1395,0.661
21,201T,0.35
22,NCI-H1915,0.449
23,HCC-827,0.229
24,LXF-289,0.895
25,NCI-H647,0.149

# Same assay, conditions: first compound 31.62 µM
row,Cell Line,relative viability
1,COR-L23,0.207
2,COR-L 105,1.24
3,LOU-NH91,0.355
4,ChaGo-K-1,0.242
5,NCI-H2170,0.27
6,NCI-H2405,1.09
7,HOP-62,0.186
8,LU99A,0.134
9,BEN,0.562
10,HARA,0.324
11,HCC-78,0.882
12,NCI-H322M,0.635
13,LCLC-97TM1,0.146
14,NCI-H2009,0.675
15,A-427,0.538
16,NCI-H441,0.185
17,NCI-H1734,0.36
18,NCI-H460,0.076
19,NCI-H2347,0.361
20,SK-LU-1,0.523
21,NCI-H1395,0.749
22,201T,0.311
23,NCI-H1915,0.553
24,HCC-827,0.243
25,LXF-289,0.702
26,NCI-H23,0.649
27,NCI-H647,0.115

# Same assay, conditions: first compound 100 µM
row,Cell Line,relative viability
1,COR-L23,0.168
2,COR-L 105,0.824
3,LOU-NH91,0.398
4,ChaGo-K-1,0.203
5,NCI-H2170,0.221
6,NCI-H2405,0.681
7,HOP-62,0.139
8,LU99A,0.146
9,BEN,0.306
10,HARA,0.307
11,HCC-78,0.978
12,NCI-H322M,0.59
13,LCLC-97TM1,0.0657
14,NCI-H2009,0.211
15,A-427,0.294
16,NCI-H441,0.166
17,NCI-H1734,0.232
18,NCI-H460,0.0682
19,NCI-H2347,0.335
20,SK-LU-1,0.542
21,NCI-H1395,0.489
22,201T,0.271
23,NCI-H1915,0.513
24,HCC-827,0.235
25,LXF-289,0.403
